For two compounds, Papp A→B results are on record in ChEMBL document CHEMBL4613288, “Combined Peptide and Small-Molecule Approach toward Nonacidic THIQ Inhibitors of the KEAP1/NRF2 Interaction” (ACS Med Chem Lett, 2020).

The series in a line: Apparent permeability across apical to basolateral side in MDCK-MDR1 cells measured over 60 mins. Format: ADME, cell-based, Canis lupus familiaris. Conditions: dog.

On to `O=C(O)[C@H]1CCCC[C@H]1C(=O)N1CCc2c(OCCO)cccc2[C@H]1CN1C(=O)c2ccccc2C1=O`, for which the Papp A→B at 1 h was 0.9 ×10⁻⁶ cm/s.

On to `O=C(OCc1ccccc1)[C@H]1CCCC[C@H]1C(=O)N1CCc2c(OS(=O)(=O)C(F)(F)F)cccc2C1CN1C(=O)c2ccccc2C1=O` (some centres not stated), for which the Papp A→B at 1 h was 4.6 ×10⁻⁶ cm/s.
